≈ marks a conversion by molar mass, not a printed value.
How the values were obtained:
[1] = Clearance in rat at 2 mg/kg, iv using 10% DMAC[…] Solutol HS15/80% saline formulation; assay type: ADME, organism-based; details: in vivo
[2] = molecular target: T1, Calcitonin-gene-related peptide receptor, CALCRL/RAMP1 (Homo sapiens, UniProt O60894+Q16602); assay: Antagonist activity at human CGRP receptor in human SK-N-MC cells assessed as inhibition of CGRP-induced cAMP production preincubated for 30 mins followed by CGRP addition and measured after 30 mins by HTRF assay; assay type: functional, cell-based
[3] = Clearance in rat at 0.5 mg/kg, iv; assay type: ADME, organism-based; details: in vivo
[4] = Thermodynamic solubility of the compound at pH 6; assay type: physicochemical; details: buffer, read-out: Therm_solubility
[5] = molecular target: T1, Calcitonin-gene-related peptide receptor, CALCRL/RAMP1; assay: Displacement of [3H]telcagepant from recombinant human CLR/RAMP1 expressed in Sf21 insect cell membranes measured after 60 mins by microbeta scintillation counting method
[6] = Thermodynamic solubility of the compound at pH 7.4; assay type: physicochemical; details: buffer, read-out: Therm_solubility
[7] = Clearance in rat at 2 mg/kg, iv using 100% acidified saline formulation; assay type: ADME, organism-based; details: in vivo

T1 sequence (O60894 whole entry): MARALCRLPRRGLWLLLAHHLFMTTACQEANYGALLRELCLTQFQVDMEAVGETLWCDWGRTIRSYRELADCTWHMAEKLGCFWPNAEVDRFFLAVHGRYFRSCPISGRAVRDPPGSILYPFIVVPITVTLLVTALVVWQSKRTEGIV
T1 sequence (Q16602 whole entry): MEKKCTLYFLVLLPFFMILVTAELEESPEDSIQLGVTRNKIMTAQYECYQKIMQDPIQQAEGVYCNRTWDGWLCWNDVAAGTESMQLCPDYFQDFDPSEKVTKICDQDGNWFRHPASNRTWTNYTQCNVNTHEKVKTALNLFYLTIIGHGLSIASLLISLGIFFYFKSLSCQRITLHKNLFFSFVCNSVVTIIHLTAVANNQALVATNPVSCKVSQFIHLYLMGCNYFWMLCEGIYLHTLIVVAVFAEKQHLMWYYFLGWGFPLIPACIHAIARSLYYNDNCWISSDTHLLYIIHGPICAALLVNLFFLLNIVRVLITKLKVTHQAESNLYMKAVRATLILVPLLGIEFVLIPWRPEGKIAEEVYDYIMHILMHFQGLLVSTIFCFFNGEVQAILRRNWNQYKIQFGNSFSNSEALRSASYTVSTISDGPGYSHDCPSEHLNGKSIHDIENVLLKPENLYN

Compound: NCCCC[C@H](NC(=O)[C@@H](Cc1cc(Br)c(O)c(Br)c1)NC(=O)N1CCC(N2Cc3ccccc3NC2=O)CC1)C(=O)N1CCN(c2ccncc2)CC1 [OLCEGEPANT]
- clearance [1]: 38 mL/min/kg
- pKb [2]: 11.2

Compound: Cc1cc(C[C@@H](NC(=O)N2CCC(n3c(=O)[nH]c4ncccc43)CC2)C(=O)N[C@@H](CC2CCNCC2)C(=O)N2CCN(c3ccncc3)CC2)cc2cn[nH]c12
- clearance [3]: 55 mL/min/kg

Compound: O=C(N[C@@H](CC1CCNCC1)C(=O)N1CCN(c2ccncc2)CC1)[C@@H](Cc1cc(Br)c(O)c(Br)c1)NC(=O)N1CCC(n2c(=O)[nH]c3ncccc32)CC1
- clearance [1]: 28 mL/min/kg
- pKb [2]: 10.8

Compound: Cc1cc(C[C@@H](NC(=O)N2CCC(c3cc4ccccc4[nH]c3=O)CC2)C(=O)N[C@@H](CC2CCNCC2)C(=O)N2CCN(c3ccncc3)CC2)cc2cn[nH]c12
- solubility thermodynamic [4]: 10 µM (≈ 7.73 µg/mL)
- clearance [1]: 31 mL/min/kg
- pKb [2]: 9.8

Compound: Cc1cc(C[C@@H](NC(=O)N2CCC(n3c(=O)[nH]c4ncccc43)CC2)C(=O)N[C@@H](Cc2ccncc2)C(=O)N2CCN(c3ccncc3)CC2)cc2cn[nH]c12
- Ki [5]: 0.1 nM
- solubility thermodynamic [4]: 1770 µM (≈ 1340 µg/mL)
- solubility thermodynamic [6]: 230 µM (≈ 174 µg/mL)
- clearance [7]: 87 mL/min/kg
- pKb [2]: 10

Compound: O=C(N[C@@H](CC1CCNCC1)C(=O)N1CCN(c2ccncc2)CC1)[C@@H](Cc1cc(Br)c(O)c(Br)c1)NC(=O)N1CCC(N2Cc3ccccc3NC2=O)CC1
- clearance [1]: 21 mL/min/kg
- pKb [2]: 11.2

Compound: Cc1cc(C[C@@H](NC(=O)N2CCC(N3Cc4ccccc4NC3=O)CC2)C(=O)N[C@@H](CC2CCNCC2)C(=O)N2CCN(c3ccncc3)CC2)cc2cn[nH]c12
- clearance [1]: 6 mL/min/kg
- pKb [2]: 10.1

Compound: Cc1cc(C[C@@H](NC(=O)N2CCC(n3c(=O)[nH]c4ncccc43)CC2)C(=O)N[C@@H](CCCCN)C(=O)N2CCN(c3ccncc3)CC2)cc2cn[nH]c12
- Ki [5]: 0.0251 nM
- pKb [2]: 11
